Data taken from patent US12011475B2, “Polypeptide, polypeptide fragment, derivative thereof, and applications thereof” (CHENGDU HUITAI BIOMEDICINE CO., LTD., priority 2017, dated 2024).
Square brackets hold non-standard residues; d marks the D form. Primed or numbered codes have the meaning given here. Ends that are not written are not given here. PEG2′ = not defined here

Assays:
[1] = system: Fibronectin, Collagen I and Collagen III; test: Western blot of extracellular matrix protein in lung tissue homogenate (Example 6); assay type: in vivo, rat; conditions: vs bleomycin group, 2.5 mg/kg peptide intratracheal; for levels of Fibronectin, Collagen I and Collagen III proteins (grayscale value): p<0.05, FIG. 6; for intensities of the expression bands of Fibronectin, Collagen I and Collagen III in lung tissue: GAPDH internal reference, FIG. 5
Procedure: (§1) The rats were weighed before administration, intramuscularly injected with 65 mg/kg Zoletil anesthetic solution. After the rats entered the stage III anesthesia, the experimental rats were fixated in the lateral decubitus. Gavage needle size 12 was inserted into rat trachea through oral cavity along the glottis to instill with drug. The experimental animals were fed normally from the 1st day to the 7th day after intratracheal administration, and were weighed every day with feed and water ad libitum.
(§2) The rats in blank control group were received no treatment after anesthesia; the rats in model group (bleomycin) were intratracheally instilled with bleomycin (3 mg/kg); the rats in PBS control group were intratracheally instilled with an equal volume of sterile PBS buffer (0.01 M, pH=9.5); the rats in polypeptide control group were intratracheally instilled with 2.5 mg/kg of the polypeptide N2 (the solvent was 0.01 M, pH=9.5 PBS buffer); the rats in N2 treatment group were intratracheally instilled with 2.5 mg/kg of the polypeptide N2 and 3 mg/kg of bleomycin simultaneously, the rats in N3 treatment group were intratracheally instilled with 2.5 mg/kg of the polypeptide N3 and 3 mg/kg of bleomycin simultaneously.
The rat lung tissue of Example 2 was taken, and homogenized using RIPA lysate (100 mg of lung tissue corresponding to 1 mL of lysate), centrifuged and the supernatant was taken, and then the protein concentration was determined by BCA method. Equal amounts of protein samples were taken and Western blot experiment was performed using anti-GAPDH, anti-Fibronectin, anti-Collagen I and anti-Collagen III antibodies (the result is shown in FIG. 5).
The grayscale value of each band was detected and analyzed using Image pro plus 6.0 image analysis software (the result is shown in FIG. 6). […] The detection of grayscale value supported the above-mentioned description.

[2] = system: rat with pulmonary fibrosis induced by bleomycin; test: HE staining and alveolitis score of rat lung tissue (Example 4); assay type: in vivo; conditions: 2.5 mg/kg peptide + 3 mg/kg bleomycin intratracheal; for inflammatory pathology score (degree of alveolitis, grade 0 to 3): vs BLM group, p<0.01, FIG. 3; for pathological changes in lung tissue (HE staining): vs model group, FIG. 2
Procedure: as §1, §2
The lung tissue of the rats of Example 2 was taken, fixed with 4% paraformaldehyde and embedded in paraffin. The wax block embedded the lung tissue was sectioned along the largest cross section. Pathological changes in lung tissue were observed using hematoxylin-eosin (HE) staining. Pathological changes in lung tissue were observed under a light microscope (low magnification) at a magnification of 100 times (the result is shown in FIG. 2).
According to the method provided by Szapie, et al., the degree of alveolitis was graded according to the range of lesions and could be divided into 0 to 3 grades, corresponding to 0 to 3 points. The evaluation indexes for the degree of alveolitis are as follows: grade 0, no alveolitis; grade 1, mild alveolitis, manifested as a slight increase in alveolar septum, infiltration of monocytes, near the pleura or localized, with a lesion range of less than 20% without alveolar structural damage; grade 2, moderate alveolitis, the lesion ranges from 20% to 50%, relatively severe near the pleura; grade 3, severe alveolitis, diffusely distributed, the lesion range is more than 50%, with pulmonary parenchymal lesion occasionally.

[3] = system: TGF-β/Smad signaling pathway; test: Western blot of Smad protein in lung tissue homogenate (Example 8); assay type: in vivo, rat; conditions: vs bleomycin group, 2.5 mg/kg peptide intratracheal; for levels of p-Smad2 and p-Smad3 proteins (grayscale value): p<0.05, FIG. 9; for intensities of the expression bands of p-Smad2 and p-Smad3 in lung tissue: GAPDH internal reference, FIG. 8
Procedure: as §1, §2
The rat lung tissue of Example 2 was taken, and the tissue was homogenized using RIPA lysate (100 mg of lung tissue corresponding to 1 mL of lysate), centrifuged and the supernatant was taken, and then the protein concentration was determined by BCA method. Equal amounts of protein samples were taken and Western blot experiment was performed using anti-GAPDH, anti-p-Smad2 and anti-p-Smad3 antibodies (the result is shown in FIG. 8).
The grayscale value of each band was detected and analyzed using Image pro plus 6.0 image analysis software (the result is shown in FIG. 9). […] The detection of grayscale value supported the above-mentioned description.

[4] = system: rat with pulmonary fibrosis induced by bleomycin; test: Hydroxyproline content in lung tissue homogenate, alkali hydrolysis kit (Example 7); assay type: in vivo; conditions: vs bleomycin group; 2.5 mg/kg peptide intratracheal; p<0.05; FIG. 7
Procedure: as §1, with “libitum. […]” for “libitum.”
The rats of Example 2 were taken, and the hydroxyproline content in lung tissue homogenate was detected using Boster Hydroxyproline Alkali Hydrolysis Assay Kit (Cat. No. A030) (the result is shown in FIG. 7).

[5] = system: rat with pulmonary fibrosis induced by bleomycin; test: Lung coefficient, bleomycin rat model (Examples 2-3); assay type: in vivo; conditions: vs bleomycin group; 2.5 mg/kg peptide + 3 mg/kg bleomycin intratracheal, simultaneously; p<0.05; FIG. 1
Procedure: as §1, with “libitum. […]” for “libitum.”
The rats in Example 2 were weighed and sacrificed by anesthesia overdose. […] After the wet weight of the whole lung was weighted by the electronic balance, the lung coefficient was calculated according to the formula, lung coefficient=lung mass (mg)/body weight (g) (the result is shown in FIG. 1).

[6] = system: rat with pulmonary fibrosis induced by bleomycin; test: Inflammatory cells in bronchoalveolar lavage fluid, Wright-Giemsa staining (Example 5); assay type: in vivo; conditions: vs bleomycin group; 2.5 mg/kg peptide + 3 mg/kg bleomycin intratracheal; p<0.05; FIG. 4
Procedure: as §1, with “libitum. […]” for “libitum.”
Bronchoalveolar lavage fluid was collected, and […] by centrifugation. […] The counting method was: the number of macrophages, lymphocytes, and neutrophils was calculated according to the total number of inflammatory cells based on the respective proportion of macrophages, lymphocytes, and neutrophils in 100 intact cells (the result is shown in FIG. 4).

TGF-β signaling pathway = test: ctgf, Collagen I and Collagen III in lung tissue by RT-qPCR (Example 11); assay type: in vivo, rat; conditions: vs model group; 6 mg/kg peptide + 3 mg/kg bleomycin intratracheal; 18S RNA reference; p<0.05; FIG. 11
Procedure: (§3) The rats were weighed before administration, intramuscular injection of Zoletil anesthetic solution, the dose was 65 mg/kg. After the rats entered the stage III anesthesia, the experimental rats were bond in the incline lateral decubitus. A size 12 gavage needle was inserted into rat trachea through oral cavity along the glottis to infuse the drug. The experimental animals were fed normally from the 1st day to the 14th day after intratracheal administration, and were weighed regularly every day without restriction of feed or drinking water. […]
The rat lung tissue in the model group, the control group and the N4 treatment group of Example 9 was taken. […] After obtaining cDNA using reverse transcription, fluorescence quantitative PCR (qPCR) kit (Applied Biosystems, Cat. No. 4319413E) was used to detect the expression levels of connective tissue growth factor ctgf (forward primer: 5′-[…]-3′, reverse primer: 5′-[…]-3′) downstream of the TGF-β pathway, Collagen I (forward primer: 5′-TGCCGATGTCGCTATCCA-3′, reverse primer: 5′-[…]-3′) and Collagen III (forward primer: 5′-[…]-3′, reverse primer: 5′-[…]-3′). […]

active TGF-β = test: Active TGF-β in lung tissue by ELISA (Examples 9-10); assay type: in vivo, rat; conditions: vs model group; 6 mg/kg peptide + 3 mg/kg bleomycin intratracheal; p<0.05; FIG. 10
Procedure: as §3
The rat lung tissue in the model group, the control group and the N4 treatment group of Example 9 was taken, and homogenized using RIPA lysate (100 mg of lung tissue corresponding to 1 mL of lysate), centrifuged and the supernatant was taken, and then the protein concentration was determined by BCA method. Equal amounts of protein samples were taken and the active TGF-β content was measured by enzyme-linked immunosorbent assay ELISA (Promega, Cat. No. G7591) (the result is shown in FIG. 10), and one-way ANOVA was used for biostatistical analysis.

[7] = system: rat with pulmonary fibrosis induced by bleomycin; test: Hydroxyproline content in lung tissue homogenate, acid hydrolysis (Example 12); assay type: in vivo; conditions: vs model group; 6 mg/kg peptide + 3 mg/kg bleomycin intratracheal; p<0.05; FIG. 12
Procedure: The rats were weighed before administration, intramuscular injection of Zoletil anesthetic solution, the dose was 65 mg/kg. After the rats entered the stage III anesthesia, the experimental rats were bond in the incline lateral decubitus. A size 12 gavage needle was inserted into rat trachea through oral cavity along the glottis to infuse the drug. The experimental animals were fed normally from the 1st day to the 14th day after intratracheal administration, and were weighed regularly every day without restriction of feed or drinking water.
The rats in model group were intratracheally instilled with bleomycin (3 mg/kg); the rats in control group were intratracheally instilled with an equal volume of saline; the rats in treatment groups were intratracheally instilled with bleomycin (3 mg/kg) and corresponding therapeutic drug (6 mg/kg) simultaneously.
The lung tissue in the model group, the control group and the N4 treatment group of Example 9 was taken, and the hydroxyproline content in the lung tissue homogenate was detected using BioVision Hydroxyproline Acid Hydrolysis Assay Kit (Cat. No. K555-100) (the result is shown in FIG. 12), and one-way ANOVA was used for biostatistical analysis.

Substance | levels of Fibronectin, Collagen I and Collagen III proteins (grayscale value) [1] | intensities of the expression bands of Fibronectin, Collagen I and Collagen III in lung tissue [1] | inflammatory pathology score (degree of alveolitis, grade 0 to 3) [2] | pathological changes in lung tissue (HE staining) [2] | levels of p-Smad2 and p-Smad3 proteins (grayscale value) [3] | intensities of the expression bands of p-Smad2 and p-Smad3 in lung tissue [3] | hydroxyproline content in lung tissue [4] | lung coefficients of the left lung, the right lung and the whole lung [5] | number of macrophages, heteromorphic nuclear cells and lymphocytes in bronchoalveolar lavage fluid [6] | gene expression levels of ctgf, collagen I and collagen III in lung tissue (TGF-β signaling pathway) | content of active TGF-β in the lung tissue (active TGF-β) | hydroxyproline content in lung tissue [7]
(PEG2)TyrArgValArgPheLeuAlaLysGluAsnValThrGlnAspAlaGluAsp ([PEG2′]YRVRFLAKENVTQDAED; listed as Homo sapiens) [N3] | decreased significantly | almost returned to the level of the control group | significant alleviation | a small amount of inflammatory cell infiltration in the interstitial | decreased significantly | almost returned to the level of the control group | decreased significantly | decreased significantly | decreased significantly |  |  | 
YRVRFLAKENVTQDAED [N2] | decreased significantly | almost returned to the level of the control group | significant alleviation | a small amount of inflammatory cell infiltration in the interstitial | decreased significantly | almost returned to the level of the control group | decreased significantly | decreased significantly | decreased significantly |  |  | 
RFLAKENVTQD [N4] |  |  |  |  |  |  |  |  |  | decreased significantly | decreased significantly | decreased significantly
